“And” between values parts separate entries of the source, which are not always exact repeats. Equal values may be shown once.
How the values were obtained:
CD4 cells = test: CD4 cell counts in long term AZT recipients related to codon 215 genotype; assay type: in vivo, human (HIV-infected patients); details: for CD4 decline after serum mutation / mean decrease of CD4 cells after serum mutation: 19 patients; for mean CD4 count at the start of therapy: 26 patients who developed codon 215 mutation in serum
Description: Cryopreserved PBMC and serum from 40 participants in AIDS Clinical Trial Group (ACTG) protocols 019 (30 patients) and 016 (10 patients) at Stanford University Medical Center AIDS Clinical Trial Unit were used in this study. Patients at enrollment in these studies were AZT naive, had >200 CD4 cells/μl and had few (016) or no symptoms (019) referable to HIV infection. They were subsequently treated with AZT for 2 to 4 years. The most common dosage was 500 mg per day.
CD4 cell counts were obtained approximately every three months on each patient. All counts were performed at Stanford's ACTG-qualified cytofluorometry lab. Samples were stained with monoclonal antibodies to CD3, CD4, and CD8. The absolute CD4 count was calculated by multiplying the percent CD4 by the total lymphocyte count.
All comparisons between the patients with mutant and wild type strains were performed using the student's t-test. The calculations on the IC90s determined by the zidovudine sensitive assay were performed using the logl10 transformed IC90 (i.e., geometric means were used rather than arithmetic means).

[1] = test system: HIV with codon 215 mutation; details: mutation at codon 215; cited from earlier work
plasma HIV RNA = details: patients receiving AZT; ultracentrifugation, 40 cycles (Ottman et al.); cited from earlier work
[2] = 11 patients wild type in serum over 34 months

In the case of `Cc1cn([C@H]2C[C@H](N=[N+]=[N-])[C@@H](CO)O2)c(=O)[nH]c1=O` [AZT, zidovudine], the CD4 increase (CD4 cells; [2]) is reported as 2%, the “increase of CD4 cells” value (CD4 cells; [2]) is reported as 7±92 CD4 cells/μl and the “CD4 decline after serum mutation” value (CD4 cells; at 12 months) is reported as 40%. For the same compound, the “mean decrease of CD4 cells after serum mutation” value (CD4 cells; at 12 months) was 170±121 CD4 cells/μl, the “CD4 decline after serum mutation” value (CD4 cells; at six months) was 25% and the “mean decrease of CD4 cells after serum mutation” value (CD4 cells; at six months) was 100±116 CD4 cells/μl. For the same compound, the “mean increase in absolute CD4 count, start of therapy to end of study” value (CD4 cells; 21 patients wild type at codon 215) was 11%, the “Starting absolute CD4” value (CD4 cells; 21 patients wildtype at codon 215 in PBMC) was 397 cells/μl and 397 ± 124 cells/μl and the “mean CD4 count at first detection of codon 215 mutation in serum” value (CD4 cells; 26 patients) was 444±206 cells/μl and 444 cells/μl. For the same compound, the “mean CD4 count at the start of therapy” value (CD4 cells) was 398±139 cells/μl and 398 cells/μl, the “mean CD4 count at the start of therapy” value (CD4 cells; listed as zidovudine) was 398±139 cells/μl and the “starting CD4 count” value (CD4 cells; patients who remained wild type in serum) was 397±115 cells/μl. For the same compound, the “CD4 % at time of PCR analysis” value (CD4 cells; wildtype at codon 215 in PBMC) was 25% and 25 ± 9%, the “Starting CD4 %” value (CD4 cells; wildtype at codon 215 in PBMC) was 26 ± 8% and the “Absolute CD4 at time of PCR analysis” value (CD4 cells; wildtype at codon 215 in PBMC, 33 ± 8 months of AZT) was 424 cell/μl and 424 ± 210 cell/μl. For the same compound, the “Starting CD4 %” value (CD4 cells; {}) was 25 ± 6%, the “decrease in absolute CD4 count, start of therapy to end of study” value (CD4 cells; {}) was 50% and the “decrease in zidovudine susceptibility” value [1] was 16 fold. The “patients with detectable plasma HIV RNA signal” value (plasma HIV RNA) was 24 of 25.
